Data published in patent US20250114342A1, “APIXABAN ORAL LIQUID DOSAGE FORMS” (Shilpa Medicare Limited, priority 2023, published 2025).
Like-named read-outs stand apart in the source and are kept apart here.

Tests used:
[1] = cited from earlier work
[2] = Drug-excipients compatibility study (thermal stability); format: physicochemical
Method: Amounts of apixaban and other components identified here were determined chromatographically, e.g., High Performance Liquid Chromatograph (HPLC). Amounts of apixaban related substances identified here were also determined chromatographically, e.g., High Performance Liquid Chromatograph (HPLC).

SMILES: COc1ccc(-n2nc(C(N)=O)c3c2C(=O)N(c2ccc(N4CCCCC4=O)cc2)CC3)cc1 [apixaban, 1-(4-methoxyphenyl)-7-oxo-6-[4-(2-oxopiperidin-1-yl)phenyl]-4,5,6,7-tetrahydro-1H-pyrazolo[3,4-c]pyridine-3-carboxamide]
- solubility ([1]; 2 mg of apixaban, 100% propylene glycol, 20° C.): partially soluble
- solubility ([1]; higher amount of apixaban, 40% propylene glycol+60% glycerol, 20° C.): insoluble
- solubility ([1]; higher amount of apixaban, 40% propylene glycol+60% glycerol, 40° C.): gets dissolved
- Any individual unspecified impurity ([2]; 15 Days 60° C. Close Vial): 0.03 % w/w
- Related substances: Acid Impurity ([2]; 15 Days 60° C. Close Vial): 0.02 % w/w
- Total impurities ([2]; 15 Days 60° C. Close Vial): 0.07 % w/w
- Any individual unspecified impurity ([2]; 30 Days 25° C. Close Vial): 0.03 % w/w
- Related substances: Acid Impurity ([2]; 30 Days 25° C. Close Vial): 0.01 % w/w
- Total impurities ([2]; 30 Days 25° C. Close Vial): 0.07 % w/w
- Any individual unspecified impurity ([2]; 30 Days 25° C. Open Vial): 0.02 % w/w
- Related substances: Acid Impurity ([2]; 30 Days 25° C. Open Vial): 0.02 % w/w
- Total impurities ([2]; 30 Days 25° C. Open Vial): 0.07 % w/w
- Any individual unspecified impurity ([2]; 30 Days 40° C. Close Vial): 0.03 % w/w
- Related substances: Acid Impurity ([2]; 30 Days 40° C. Close Vial): 0.02 % w/w
- Total impurities ([2]; 30 Days 40° C. Close Vial): 0.09 % w/w
- Any individual unspecified impurity ([2]; 30 Days 40° C. Open Vial): 0.03 % w/w
- Related substances: Acid Impurity ([2]; 30 Days 40° C. Open Vial): 0.02 % w/w
- Total impurities ([2]; 30 Days 40° C. Open Vial): 0.09 % w/w
- Any individual unspecified impurity ([2]; Initial): 0.02 % w/w
- Related substances: Acid Impurity ([2]; Initial): 0.01 % w/w
- Total impurities ([2]; Initial): 0.06 % w/w
